Results from the supplement of paper PMC10307832.

Columns and labels:
Assay in all cases: relative viability (nuclei count vs DMSO), 5 days (fraction); higher = more cells survive
Vemurafenib + Bortezomib = compound: CCCS(=O)(=O)Nc1ccc(F)c(C(=O)c2c[nH]c3ncc(-c4ccc(Cl)cc4)cc23)c1F [Vemurafenib] + CC(C)C[C@H](NC(=O)[C@H](Cc1ccccc1)NC(=O)c1cnccn1)B(O)O [Bortezomib] (partner 0.002 µM)
Outline: (§1)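 Lung cancer cell lines were seeded in 1536-well plates and dosed by pin tool the next day, with either a single drug or a fixed anchor-drug dose combined with five library-drug doses (not always all listed) spaced in √10 steps. Five days later, one step fixed the cells and stained their nuclei (final 0.05% Triton X-100, 1% formaldehyde, 1 ug/ml Hoechst), and nuclei were counted on 4× images. Relative viability is the nuclei count in treated wells divided by the count in vehicle wells, and each value is the median of duplicate plates.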

Alpelisib + Vorinostat = compound: Cc1nc(NC(=O)N2CCC[C@H]2C(N)=O)sc1-c1ccnc(C(C)(C)C(F)(F)F)c1 [Alpelisib] + O=C(CCCCCCC(=O)Nc1ccccc1)NO [Vorinostat] (partner 1 µM)
Outline: as §1

OSI-027 + Pemetrexed = compound: COc1cccc2cc(-c3nc([C@H]4CC[C@H](C(=O)O)CC4)n4ncnc(N)c34)[nH]c12 [OSI-027] + Nc1nc2[nH]cc(CCc3ccc(C(=O)N[C@@H](CCC(=O)O)C(=O)O)cc3)c2c(=O)[nH]1 [Pemetrexed] (partner 0.2 µM)
Outline: as §1

Alpelisib + Foretinib = compound: Cc1nc(NC(=O)N2CCC[C@H]2C(N)=O)sc1-c1ccnc(C(C)(C)C(F)(F)F)c1 [Alpelisib] + COc1cc2c(Oc3ccc(NC(=O)C4(C(=O)Nc5ccc(F)cc5)CC4)cc3F)ccnc2cc1OCCCN1CCOCC1 [Foretinib] (partner 0.25 µM)
Outline: as §1

Cell Line	relative viability (Vemurafenib + Bortezomib; first compound 0.03162 µM)	relative viability (Vemurafenib + Bortezomib; first compound 0.3162 µM)	relative viability (Vemurafenib + Bortezomib; first compound 1 µM)	relative viability (Alpelisib + Vorinostat; first compound 0.04 µM)	relative viability (Alpelisib + Vorinostat; first compound 0.1265 µM)	relative viability (Alpelisib + Vorinostat; first compound 0.4 µM)	relative viability (Alpelisib + Vorinostat; first compound 1.265 µM)	relative viability (Alpelisib + Vorinostat; first compound 4 µM)	relative viability (OSI-027 + Pemetrexed; first compound 0.01 µM)	relative viability (OSI-027 + Pemetrexed; first compound 0.03162 µM)	relative viability (OSI-027 + Pemetrexed; first compound 0.1 µM)	relative viability (OSI-027 + Pemetrexed; first compound 0.3162 µM)	relative viability (OSI-027 + Pemetrexed; first compound 1 µM)	relative viability (Alpelisib + Foretinib; first compound 0.04 µM)	relative viability (Alpelisib + Foretinib; first compound 0.1265 µM)	relative viability (Alpelisib + Foretinib; first compound 0.4 µM)	relative viability (Alpelisib + Foretinib; first compound 1.265 µM)	relative viability (Alpelisib + Foretinib; first compound 4 µM)	relative viability (Vemurafenib + Bortezomib; first compound 0.1 µM)
PC-3 [JPC-3]	0.81	0.804	0.887	0.877	0.699	1.12	0.638	0.514	0.464	1.1	0.775	0.84	0.785	1.08	1	1.07	0.987	0.971	
NCI-H1648				0.418	0.457	0.714	0.317	0.324	0.849	0.825		0.656	0.701						
NCI-H1651	0.851	0.769	1	0.534	0.619	0.552	0.517	0.504	0.54	0.575	0.532	0.57	0.523	0.683	0.853	0.791	0.571	0.741	0.949
NCI-H596	1.05	0.802	1.05	0.484	0.837	0.629	0.328	0.267	0.436	0.576	0.463	0.475	0.504	0.769	0.677	0.731	0.457	0.431	0.896
HARA	1.08	0.603	1.12	0.528	0.52	0.511	0.305	0.391	0.249	0.221	0.231	0.227	0.264	0.914	0.888	0.879	0.682	0.533	
NCI-H727	0.927	1.35	0.54	1.1	1.2	1.07	1.06	0.848						0.897	0.772	0.771	0.645	0.676	0.812
Calu-6	0.897	0.96	0.832											0.926	0.842	0.931	0.871	0.617	0.939
NCI-H1993	1.02	1.25	1.03	0.751	0.815	0.909	0.596	0.64	0.533	0.41	0.522	0.465	0.45	0.737	0.697	0.771	0.544	0.55	
HCC-366	1		1.06	0.429	0.356	0.353	0.208	0.156	0.18	0.162	0.175	0.186	0.206	0.887	0.939	0.868	0.861	0.349	1.05
IA-LM	0.802	0.822	0.598	0.882		1.32	0.92	0.867						1.03	1.31	1.11	1.12	1.13	0.764
EPLC-272H	0.857	0.812	0.867	0.474	0.455	0.465	0.209	0.222	0.357	0.279	0.263	0.273	0.338	0.723	0.674	0.754	0.376	0.422	0.749
NCI-H441	0.336		0.412	0.681	0.716	0.961	0.603	0.401	0.259	0.213	0.285	0.255	0.251	0.891	0.844	0.786	0.724	0.566	0.482
NCI-H1793				0.62	0.977	0.839	0.598	0.325	0.795	0.866	0.468	0.391	0.209	0.733	0.666	0.77	0.402	0.42	
201T	1.07	1.15	1.17	0.928	0.928	0.949	0.842	0.831	0.316	0.348	0.313	0.332	0.305	1.11	1.06	1.29	0.841	0.71	0.998
NCI-H460	0.982	0.932	1.04	0.717	0.788	0.938	0.564	0.434	0.0613	0.0659	0.0561	0.0523	0.0728	0.998	1.02	1.08	0.929	0.795	1.1
NCI-H1666	0.839	0.98	0.759	0.978	1.1	1.07	0.876	0.727	0.853	0.905	0.832	0.831	0.787	1	1.02	1.05	0.801	0.74	
HOP-62	0.814	0.648	1.07	0.665	0.558	0.683	0.456	0.491	0.371	0.307	0.341	0.331	0.261	1.08	1.15	1.23	1.02	0.978	0.868
SW 1573	0.896	1.03	1.07	0.833	0.684	0.678	0.388	0.584	0.817	0.982	0.852	0.771	0.343	0.854	0.713	0.823	0.696	0.724	0.945
NCI-H2085	1.05	0.914	0.847	0.801	0.686	0.888	0.754	0.633	0.776	0.879	0.797	0.841	0.795	0.93	0.845	1.05	1.07	0.833	0.91
ABC-1	0.268	0.267	0.287	1.15	0.602	0.905	0.869	0.692						1.28	0.876	0.878	0.611	0.78	0.302
NCI-H1299	0.998	0.918	1											1.12	1.12	1.19	0.978	1.12	0.976

Cell Line	relative viability (Vemurafenib + Bortezomib; first compound 0.03162 µM)	relative viability (Vemurafenib + Bortezomib; first compound 0.3162 µM)	relative viability (Vemurafenib + Bortezomib; first compound 1 µM)	relative viability (Alpelisib + Vorinostat; first compound 0.04 µM)	relative viability (Alpelisib + Vorinostat; first compound 0.1265 µM)	relative viability (Alpelisib + Vorinostat; first compound 0.4 µM)	relative viability (Alpelisib + Vorinostat; first compound 1.265 µM)	relative viability (Alpelisib + Vorinostat; first compound 4 µM)	relative viability (OSI-027 + Pemetrexed; first compound 0.01 µM)	relative viability (OSI-027 + Pemetrexed; first compound 0.03162 µM)	relative viability (OSI-027 + Pemetrexed; first compound 0.1 µM)	relative viability (OSI-027 + Pemetrexed; first compound 0.3162 µM)	relative viability (OSI-027 + Pemetrexed; first compound 1 µM)	relative viability (Alpelisib + Foretinib; first compound 0.04 µM)	relative viability (Alpelisib + Foretinib; first compound 0.1265 µM)	relative viability (Alpelisib + Foretinib; first compound 0.4 µM)	relative viability (Alpelisib + Foretinib; first compound 1.265 µM)	relative viability (Alpelisib + Foretinib; first compound 4 µM)	relative viability (Vemurafenib + Bortezomib; first compound 0.1 µM)
LU99A	1.02	1.05	1.04	0.462	0.488	0.508	0.415	0.334	0.181	0.362	0.173	0.239	0.159	0.746	0.832	0.722	0.661	0.503	1.07
NCI-H2009	0.944	0.583	0.778	0.675	0.711	0.784	0.669	0.658	1.15	1.05	1.04	0.998	0.687	1.23	1.2	1.25	1.1	1.1	0.922
LCLC-97TM1	0.495	0.528	0.742	0.673	0.58	0.63	0.33	0.291	0.178	0.207	0.147	0.186	0.15	0.879	0.913	0.883	0.73	0.449	0.587
NCI-H1915	0.894	0.886	0.91	0.543	0.543	0.577	0.448	0.509	0.546	0.516	0.47	0.449	0.536	1.12	1.1	1.15	1.03	1.09	0.995
NCI-H2342				0.795	0.622	0.712	0.662	0.714	0.755	0.818	0.752	0.697	0.5	1.01	1.08	1.07	0.767	0.753	
EKVX	0.895	1.03	1.05	0.584	0.657	0.928	0.597	0.456	0.438	0.391	0.486	0.382	0.403	0.519	0.726	0.66	0.67	0.73	
A549														0.926	0.875	0.956	0.662	0.599	
NCI-H1703	0.527	0.32	0.257											0.295	0.362	0.381	0.271	0.303	0.438
LK-2				0.261	0.264	0.261	0.234	0.306	0.238		0.237	0.174	0.158	1.07	1.19	1.28	0.906	0.932	
NCI-H2170				0.731	0.663	0.914	0.551	0.484	0.26	0.263	0.289	0.325	0.305	0.978	0.914	1.12	0.922	0.622	
SK-MES-1				1.13	1.09	1.15	0.828	0.833	0.998	0.919	0.866	0.782	0.359	0.799	0.864	0.904	0.809	0.525	
EBC-1	0.453	0.622	0.741											0.101	0.0979	0.0957	0.108	0.114	0.553
SW 900				0.497		0.587	0.368	0.461	0.368	0.56	0.477	0.508	0.406	1.22	0.991	0.79	0.885	0.843	
NCI-H358				0.686	0.563	0.768	0.428	0.321	0.185	0.171	0.176	0.132	0.151	0.622	0.674	0.684	0.567	0.353	
NCI-H1563	0.855	0.762	0.846						0.754	0.719	0.72	0.755	0.543	0.861	0.95	0.909	0.713	0.748	0.658
NCI-H522				0.79	0.977	1.04	0.867	0.742	1.04	0.956	0.717	0.858	0.664						
HCC-44	0.861	0.824	0.861	1.1	1.05	1.11	1.04	1.18	0.668	0.649	0.708	0.658	0.669						0.993
NCI-H1623														0.833	0.744	0.845	0.54	0.494	
NCI-H1792	0.875	0.721	0.957						0.569	0.852	0.757	0.635	0.214						0.951
NCI-H1395				0.742	0.565	0.773	0.62	0.537	0.736	0.826	0.643	0.74	0.74	0.889	1.04	1.01	0.897	0.988	
NCI-H1944				0.538	0.554	0.597	0.399	0.326	0.657	0.691	0.77	0.59	0.519	0.786	0.96	0.881	0.581	0.43	
